The test system of assay [1] is C57BL/6 mice subjected to desiccating stress. As to the kind of experiment: Corneal OGD staining in murine desiccating stress model. It counts as in vivo, mouse. The note with it: topical bilateral 2 times per day, 5 days DS, vs vehicle (GW559090 1-30 mg/mL; Dex 0.1%). How it is done:
(§1) Female C57BL/6 mice, aged 6 to 8 weeks, were subjected to DS for 5 days (DS5) as described previously (de Paiva et al., 2006b; Niederkorn et al., 2006). Topical bilateral treatment with 1 eye drop per eye (2 μL volume) or subcutaneous injection (4 μL volume), 2 times per day, was initiated on day 1 concurrently with DS and continued through day 4. Treatment with the compound of formula I or dexamethasone phosphate 0.1% was compared to correspondingly treated vehicle controls. Mice were randomized to receive one of the test articles. Control mice were kept in a non-stressed (NS) environment maintained at 50-75% relative humidity without exposure to airflow or scopolamine and were not treated with test or control article. Treatment effects were assessed on corneal staining with Oregon Green Dextran (OGD); expression of inflammatory markers in ocular surface tissues by real time PCR; cell population analysis in draining cervical lymph nodes by FACS analysis; conjunctival T cell infiltration by immunohistochemistry.
On the morning of the 5th day, mice received one s.c. dose of scopolamine. Two hours later corneal staining was assessed using Oregon Green Dextran (OGD-488), which is a conjugated fluorescent dye of a 70 kDa molecular size (Invitrogen-Molecular Probes) as previously described (de Paiva et al., 2006b). The procedure consisted of instillation of 0.5 μL of OGD on the cornea using a glass capillary pipette, 1 minute before euthanasia. Mice were euthanized by inhalation of isoflurane gas followed by cervical dislocation. Eyes were then rinsed with 2 mL of BSS. Excess liquid was carefully blotted from the ocular surface with filter papers without touching the cornea. Digital pictures of both eyes were taken under 470 nm excitation and 488 nm emission wave lengths using a Nikon SMZ-1500 stereo microscope, with an exposure time of 2 seconds. Both eyes from each animal were evaluated; the right eye always first followed by the left eye. The mean intensity in the central cornea was evaluated from digital images using NIS Elements (version 3.0) by placing a fixed region of interest (a 2-mm diameter circle) on the central cornea. The mean intensity of the fluorescence was read by the software and stored in a database (Excel, Microsoft). This fluorescence measurement in the central ring was done independently by 2 masked observers, for each mouse eye. By the conclusion of the experiment, results were averaged from both observers using all data collected during all study weeks (Excel, Microsoft). Results are presented as geometric mean±95% confidence interval of gray levels.
Due to skewed distribution of OGD data, the analysis was done on the log 10 scale to make the data more normally distributed. Log 10 OGD data was averaged across two observers and the left and right eyes. The mixed effects ANOVA model included treatment group as a fixed effect and week as a random effect. 95% and 99% confidence intervals were constructed for the disease (5 day DS vs untreated group kept in separate vivarium) and compound treatment effects (treatment vs vehicle). As these comparisons were all pre-planned (comparing each treatment to its vehicle group), no adjustment was made for multiplicity. […] T cell density was calculated for each section and averaged across sections for each animal. […]

Assay [2] concerns cells of draining cervical lymph nodes. Kind of assay: Flow cytometry of draining cervical lymph nodes, desiccating stress 1 day. Conditions: 1 day DS. The assay is classed as in vivo, mouse. As to the method:
as §1
Cervical draining lymph nodes (CLN) were surgically excised, placed in a round culture plate with ˜8 mL of complete RPMI media and smashed between two frosted slides.
Single-cell suspensions of CLN from C57BL/6 mice, treated under DS conditions for 1 day, were prepared, centrifuged and sequentially filtered, as previously described (de Paiva et al., 2009a). Subsequently 1.0 mL of ACT solution was added for 30 seconds followed by 2.0 mL of complete RPMI. The cells were once again centrifuged and the supernatant aspirated. Cells were then re-suspended in 2.0 mL of complete RPMI and prepared for counting. Ten μL of Trypan Blue were used for counting and the cells were divided in tubes at 1×10^6 cells/mL. Subsequently, the cells were incubated on ice in 20 μL unconjugated anti-mouse CD16/CD32 (BD Pharmingen, San Diego, Calif.) followed by 80 μL of directly conjugated primary antibody or isotype. Finally the samples were washed with 1 mL PBS/1% FBS, centrifuged and re-suspend in 0.3 mL PBS/1% FBS containing 1:1000 of PI. The samples were stored at 4° C. until the analysis was performed with an A BD LSRII Benchtop cytometer. The data was analysed using BD Diva Software (BD Pharmingen) and FlowJo (TreeStar Inc).
Due to skewed distribution of OGD data, the analysis was done on the log 10 scale to make the data more normally distributed. Log 10 OGD data was averaged across two observers and the left and right eyes. The mixed effects ANOVA model included treatment group as a fixed effect and week as a random effect. 95% and 99% confidence intervals were constructed for the disease (5 day DS vs untreated group kept in separate vivarium) and compound treatment effects (treatment vs vehicle). As these comparisons were all pre-planned (comparing each treatment to its vehicle group), no adjustment was made for multiplicity. Log 10 scale treatment effect estimates and confidence limits were converted back to the original OGD scale, thus representing the estimate for the ratio of group geometric means and their confidence limits. For gene expression analysis, an unpaired T test was performed to compare drug and vehicle treatment. For flow cytometry analysis, a 2-way ANOVA with fixed treatment and random experiment effects was employed to test the treatment differences. The analysis was followed by Dunnett's multiple comparison procedure to compare each of the treatment groups with the vehicle group. T cell density was calculated for each section and averaged across sections for each animal. As the distribution of average cell density data was non-normal, it was analyzed by using non-parametric methods (Kruskal-Wallis procedure, followed by Dunn's multiple comparisons technique).
The draining CLN are an integral part of the immune cycle in DED (Pflugfelder et al., 2008; Schaumburg et al., 2011). […]
(Flow cytometry measures light scatter and fluorescence of single cells or particles in a stream.)

The test system of a further assay is dry eye patients. The note with it: delivered topically; cited from earlier work.
The test system of assay [3] is multiple sclerosis and Crohn's disease. The note with it: in vivo; cited from earlier work.
[4] abbreviates: topical treatment, vs vehicle (GW559090 30 mg/mL, 60 μg per eye; Dex 0.1%), listed as dexamethasone.

The values below come from patent US10413535B2, “Pharmaceutical compositions comprising an integrin ALPHA4 antagonist for use in treating ocular inflammatory conditions” (AXEROVISION, INC., priority 2015, dated 2019).

For the molecule `C[C@@H]1C[C@H]2[C@@H]3CCC4=CC(=O)C=C[C@]4(C)[C@@]3(F)[C@@H](O)C[C@]2(C)[C@@]1(O)C(=O)COP(=O)(O)O` [Dex, Dexamethasone phosphate, reference compound], the “OGD intensity score (corneal staining / corneal barrier disruption)” value in assay [1] is on record as “significantly improved”; in assay [1] (listed as dexamethasone) it was “decreased”. Further, the “CD4+ and CD8+ T cells in draining lymph nodes” value in assay [2] was “nor did treatment with the compound of formula I or dexamethasone decrease the number of T cells”. The “CD11c+ dendritic cells in draining cervical lymph nodes” value in assay [2] (setting [4]) was “no significant effect”; in assay [2] (topical treatment, vs vehicle (GW559090 30 mg/mL, 60 μg per eye; Dex 0.1%), listed as dexamethasone phosphate), “Neither systemic treatment with the compound of formula I nor topical treatment with dexamethasone phosphate produced the same effect”. In addition, the “CD11c+/MHC II+ dendritic cells in draining cervical lymph nodes” value in assay [2] (setting [4]) is “no significant effect”.

`CS(=O)(=O)c1cccc(C[C@H](NC(=O)c2c(Cl)cc3c(c2Cl)CCN(C(=O)c2ccc4ccoc4c2)C3)C(=O)O)c1` [Lifitegrast, (2S)-2-[[2-(1-benzofuran-6-carbonyl)-5,7-dichloro-3,4-dihydro-1H-isoquinoline-6-carbonyl]amino]-3-(3-methylsulfonylphenyl)propanoic acid]: in the assay with dry eye patients, the Corneal staining result is “reduce” and the Symptoms entry is on record as “improve”.

Regarding “Natalizumab: an antibody directed against the integrin α4 subunit”, the “Inflammation and clinical outcomes” value in assay [3] was “profoundly inhibit inflammation and improve clinical outcomes”.
